Test system: Groundnut
Test: Field trial on groundnut, protein content of seeds
Set-up: species or system Groundnut GG-2 variety
Conditions: in vivo
Excerpt: Field Trial Study of Treatments with Spirulina Compositions on Groundnut by Soil Drenching. Trials were laid in Ishvarpura (Idar) village, Dist.-Sabarkantha, Gujarat, India, to evaluate various compositions for treatment of Groundnut GG-2 variety. The plot size was 3828 m2. All the recommended agronomic practices were followed. All the treatments were applied by Soil drenching. Also, no urea or any other chemical fertilizer was applied in the trial and in the previous crop. Thus, the parts where compositions of the present invention were applied were free of chemical nutrient for over a year.

NC(N)=O [Urea]
Protein content of Groundnut Seeds %: 48.884%

From patent US10555536B2, “Crop fortification, nutrition and crop protection composition” (priority 2017, dated 2020)
